# “Also recorded” adds a separate entry of the source.
# Legend:
# [1] = test system: oligodendrocytes (CNP positive cells); assay: Oligodendrocyte density (CNP positive cells) in white matter, mouse model of chronic hypoxia; format: in vivo, mice; conditions: Hx-BH4 vs Hx; 10.5% FiO2 postnatal day 3 to 11; n=3-6 each
# Source text: (§1) FIG. 3. Correspondence between human and rodent gestation periods. Regarding WM development, postnatal days 3-11 in mice correspond to the 3rd trimester of human pregnancy. The murine model was used by the inventors to investigate the effects of hypoxia and treatment of hypoxia by BH4. A mouse model of chronic hypoxia during a period that corresponds to the 3rd trimester in human white matter development is described by […], et al ^47 and by Raymond, et al. ^48, both of which are incorporated by reference. Three groups of mice: Normoxic controls (Nx), Hypoxic (Hx), Hypoxic treated with BH4 (Hx-BH4). Hx and Hx-BH4 mice were kept at 10.5% FiO2 from postnatal day 3 to 11-a period of WM development equivalent to the 3rd trimester in humans as illustrated by FIG. 3. BH4 brain levels were quantified and compared between Nx (n=11) and Hx (n=12). Densities of cells expressing CNP, a marker of oligodendrocytes which are cells responsible for myelination, and Caspase3, an apoptosis marker, were compared between all groups (n=3-6 each). Expression of myelin basic protean, a myelination marker, was quantified using Western Blot (n=7-12 each).
# [2] = test system: apoptotic cells (Caspase3 positive); assay: Apoptotic cell density (Caspase3 positive) in white matter, mouse model of chronic hypoxia; format: in vivo, mice
# Source text: as §1
# Myelin Basic Protein = assay: Expression of myelin basic protein (Western blot, immunohistochemistry), mouse model of chronic hypoxia; format: in vivo, mice
# Source text: as §1
# [3] = cited from earlier work
# [4] = in vivo; cited from earlier work
# WM integrity and damage = conditions: in vivo; cited from earlier work
smiles,measurement,setting,value
"C[C@H](O)[C@H](O)[C@H]1CNc2nc(N)[nH]c(=O)c2N1 [BH4, Tetrahydrobiopterin]",Effect of BH4 treatment on hypoxia-induced increase of oligodendrocyte density,[1],not limited by BH4 therapy; also recorded: did not limit this effect
same,Effect of BH4 treatment on hypoxia-increased WM apoptosis (apoptotic cell density),"[2]; Hx-BH4 vs Hx, p=0.01, 10.5% FiO2 postnatal day 3 to 11, n=3-6 each",mitigate this effect; also recorded: decreased with BH4 treatment
same,"Apoptotic cell density, Hx-BH4 compared with normoxic controls",[2]; Hx-BH4 vs Nx,no difference in apoptotic cell density between Nx and Hx-BH4
same,Effect of BH4 treatment on hypoxia-decreased expression of myelin basic protein,"Myelin Basic Protein; Hx-BH4 vs Hx, p=0.006, 10.5% FiO2 postnatal day 3 to 11, n=7-12 each",mitigated by BH4 therapy; also recorded: increased with BH4 treatment
same,"Expression of myelin basic protein, Hx-BH4 compared with normoxic controls",Myelin Basic Protein; Hx-BH4 vs Nx,no significant difference between normoxic controls (Nx) and hypoxic mice treated with BH4 (Hx-BH4)
same,Safety and tolerability in long-term follow-up studies,"[3]; humans, wide range of doses",safe and well tolerated
same,Teratological effects,[3]; in vivo,no teratological effects have been documented
same,Maternal BH4 treatment in pregnant females,[3]; recent trials,efficient and safe
same,Placental crossing and fetal tissue distribution,[4],"crosses the placenta and distributes throughout fetal tissues, including the brain"
same,WM integrity and damage in children with phenylketonuria treated early,WM integrity and damage,Improvements of WM integrity and damage
